Measurements reported in US7943651B2, “Compounds” (Glaxo Group Limited, priority 2006, dated 2011).

Each compound was assayed on NFkB activity (assay: Glucocorticoid Mediated Transrepression of NFkB Activity). Conditions: Human A549 lung epithelial cells, NFkB dependent ELAM promoter alkaline phosphatase reporter, 3 ng/ml TNFα.
Assay type: cell-based
Description: Glucocorticoid Mediated Transrepression of NFkB Activity
Human A549 lung epithelial cells were engineered to contain a secreted placental alkaline phosphatase gene under the control of the distal region of the NFkB dependent ELAM promoter as previously described in Ray, K. P., Farrow, S., Daly, M., Talabot, F. and Searle, N. “Induction of the E-selectin promoter by interleukin 1 and tumour necrosis factor alpha, and inhibition by glucocorticoids” Biochemical Journal (1997) 328: 707-15.
Compounds were solvated and diluted in DMSO, and transferred directly into assay plates such that the final concentration of DMSO was 0.7%. Following the addition of cells (40K per well), plates were incubated for 1 hr prior to the addition of 3 ng/ml human recombinant TNFα. Following continued incubation for 16 hr, alkaline phosphatase activity was determined by measuring the change in optical density at 405 nm with time following the addition of 0.7 volumes of assay buffer (1 mg/ml p-nitrophenylphosphate dissolved in 1M diethanolamine, 0.28M NaCl, 0.5 mM MgCl2). Dose response curves were constructed from which EC50 values were estimated.
COc1ccc(F)cc1C(C)(C)CC(O)(CNc1cc(C)cc2c1cnn2-c1cccc(C(=O)N2CCC[C@H]2C(N)=O)c1)C(F)(F)F (stereo partly drawn) [Example 6, 1-{[3-(4-{[4-[5-Fluoro-2-(methyloxy)phenyl]-2-hydroxy-4-methyl-2-(trifluoromethyl)pentyl]amino}-6-methyl-1H-indazol-1-yl)phenyl]carbonyl}-L-prolinamide] was tested, and the EC50 was less than 3.16 nM.
Work on COc1ccc(F)cc1C(C)(C)CC(O)(CNc1cc(C)cc2c1cnn2-c1cccc(C(=O)NC(C)(C)C(N)=O)c1)C(F)(F)F (racemic) [Example 5, N-(2-Amino-1,1-dimethyl-2-oxoethyl)-3-(4-{[4-[5-fluoro-2-(methyloxy)phenyl]-2-hydroxy-4-methyl-2-(trifluoromethyl)pentyl]amino}-6-methyl-1H-indazol-1-yl)benzamide] yielded an EC50 of less than 3.16 nM.
Work on Cc1cc(NCC(O)(CC(C)(C)c2cc(F)ccc2O)C(F)(F)F)c2cnn(-c3cccc(C(=O)N4CCC[C@@H]4C(N)=O)c3)c2c1 (stereo partly drawn) [Example 12, 1-{[3-(4-{[4-(5-Fluoro-2-hydroxyphenyl)-2-hydroxy-4-methyl-2-(trifluoromethyl)pentyl]amino}-6-methyl-1H-indazol-1-yl)phenyl]carbonyl}-D-prolinamide] yielded an EC50 of less than 3.16 nM.
With COc1ccc(F)cc1C(C)(C)CC(O)(CNc1cc(C)cc2c1cnn2-c1cccc(C(=O)N(C)CC(N)=O)c1)C(F)(F)F (racemic) [Example 2, N-(2-Amino-2-oxoethyl)-3-(4-{[4-[5-fluoro-2-(methyloxy)phenyl]-2-hydroxy-4-methyl-2-(trifluoromethyl)pentyl]amino}-6-methyl-1H-indazol-1-yl)-N-methylbenzamide] the EC50 was less than 3.16 nM.
Compound Cc1cc(NC[C@](O)(CC(C)(C)c2cc(F)ccc2O)C(F)(F)F)c2cnn(-c3cccc(C(=O)N4CCC[C@@H]4C(N)=O)c3)c2c1 [Example 17, 1-{[3-(4-{[(2R)-4-(5-Fluoro-2-hydroxyphenyl)-2-hydroxy-4-methyl-2-(trifluoromethyl)pentyl]amino}-6-methyl-1H-indazol-1-yl)phenyl]carbonyl}-D-prolinamide] has an EC50 of less than 3.16 nM.
Compound COc1ccc(F)cc1C(C)(C)CC(O)(CNc1cc(C)cc2c1cnn2-c1cccc(C(=O)N[C@@H](C)C(N)=O)c1)C(F)(F)F (stereo partly drawn) [Example 4, N-[(1S)-2-Amino-1-methyl-2-oxoethyl]-3-(4-{[4-[5-fluoro-2-(methyloxy)phenyl]-2-hydroxy-4-methyl-2-(trifluoromethyl)pentyl]amino}-6-methyl-1H-indazol-1-yl)benzamide] has an EC50 of less than 3.16 nM.
With COc1ccc(F)cc1C(C)(C)CC(O)(CNc1cc(C)cc2c1cnn2-c1cccc(C(=O)N(C)CC(N)=O)c1)C(F)(F)F (single isomer, unassigned) [Example 2-A, N-(2-amino-2-oxoethyl)-3-(4-{[4-[5-fluoro-2-(methyloxy)phenyl]-2-hydroxy-4-methyl-2-(trifluoromethyl)pentyl]amino}-6-methyl-1H-indazol-1-yl)-N-methylbenzamide] the EC50 was less than 3.16 nM.
In the case of COc1ccc(F)cc1C(C)(C)CC(O)(CNc1cc(C)cc2c1cnn2-c1cccc(C(=O)N[C@H](C)C(N)=O)c1)C(F)(F)F (single isomer, unassigned) [Example 3-A], the EC50 is reported as less than 3.16 nM.
COc1ccc(F)cc1C(C)(C)CC(O)(CNc1cc(C)cc2c1cnn2-c1cccc(C(=O)NCC(N)=O)c1)C(F)(F)F (single isomer, unassigned) [Example 1-A, N-(2-amino-2-oxoethyl)-3-(4-{[4-[5-fluoro-2-(methyloxy)phenyl]-2-hydroxy-4-methyl-2-(trifluoromethyl)pentyl]amino}-6-methyl-1H-indazol-1-yl)benzamide] gave an EC50 of less than 3.16 nM.
In the case of COc1ccc(F)cc1C(C)(C)CC(O)(CNc1cc(C)cc2c1cnn2-c1cccc(C(=O)N[C@H](C)C(N)=O)c1)C(F)(F)F (mixture of isomers) [Example 3, N-[(1R)-2-Amino-1-methyl-2-oxoethyl]-3-(4-{[4-[5-fluoro-2-(methyloxy)phenyl]-2-hydroxy-4-methyl-2-(trifluoromethyl)pentyl]amino}-6-methyl-1H-indazol-1-yl)benzamide], the EC50 is reported as less than 3.16 nM.
Compound CNC(=O)CNC(=O)c1cccc(-n2ncc3c(NCC(O)(CC(C)(C)c4cc(F)ccc4OC)C(F)(F)F)cc(C)cc32)c1 (stereo not shown) [Example 13, 3-(4-{[4-[5-Fluoro-2-(methyloxy)phenyl]-2-hydroxy-4-methyl-2-(trifluoromethyl)pentyl]amino}-6-methyl-1H-indazol-1-yl)-N-[2-(methylamino)-2-oxoethyl]benzamide] has an EC50 of less than 3.16 nM.
In the case of COc1ccc(F)cc1C(C)(C)CC(O)(CNc1cc(C)cc2c1cnn2-c1cccc(C(=O)N2CCC[C@@H]2C(N)=O)c1)C(F)(F)F (mixture of isomers) [Example 7, 1-{[3-(4-{[4-[5-Fluoro-2-(methyloxy)phenyl]-2-hydroxy-4-methyl-2-(trifluoromethyl)pentyl]amino}-6-methyl-1H-indazol-1-yl)phenyl]carbonyl}-D-prolinamide], the EC50 is reported as less than 3.16 nM.
Compound COc1ccc(F)cc1C(C)(C)CC(O)(CNc1cc(C)cc2c1cnn2-c1cccc(C(=O)N[C@H](CO)C(N)=O)c1)C(F)(F)F (stereo partly drawn) [Example 16, N-[(1R)-2-Amino-1-(hydroxymethyl)-2-oxoethyl]-3-(4-{[4-[5-fluoro-2-(methloxy)phenyl]-2-hydroxy-4-methyl-2-(trifluoromethyl)pentyl]amino}-6-methyl-1H-indazol-1-yl)benzamide] has an EC50 of less than 3.16 nM.
Work on COc1ccc(F)cc1C(C)(C)CC(O)(CNc1cc(C)cc2c1cnn2-c1cccc(C(=O)N(C)[C@@H](C)C(N)=O)c1)C(F)(F)F (stereo partly drawn) [Example 14, N-[(1S)-2-Amino-1-methyl-2-oxoethyl]-3-(4-{[4-[5-fluoro-2-(methloxy)phenyl]-2-hydroxy-4-methyl-2-(trifluoromethyl)pentyl]amino}-6-methyl-1H-indazol-1-yl)-N-methylbenzamide] yielded an EC50 of less than 3.16 nM.
Work on Cc1cc(NCC(O)(CC(C)(C)c2cc(F)ccc2O)C(F)(F)F)c2cnn(-c3cccc(C(=O)N(C)CC(N)=O)c3)c2c1 (stereo not shown) [Example 9, N-(2-Amino-2-oxoethyl)-3-(4-{[4-(5-fluoro-2-hydroxyphenyl)-2-hydroxy-4-methyl-2-(trifluoromethyl)pentyl]amino}-6-methyl-1H-indazol-1-yl)-N-methylbenzamide] yielded an EC50 of less than 3.16 nM.
Compound COc1ccc(F)cc1C(C)(C)CC(O)(CNc1cc(C)cc2c1cnn2-c1cccc(C(=O)N(C)[C@H](C)C(N)=O)c1)C(F)(F)F (stereo partly drawn) [Example 15, N-[(1R)-2-Amino-1-methyl-2-oxoethyl]-3-(4-{[4-[5-fluoro-2-(methloxy)phenyl]-2-hydroxy-4-methyl-2-(trifluoromethyl)-pentyl]amino}-6-methyl-1H-indazol-1-yl)-N-methylbenzamide] has an EC50 of less than 3.16 nM.
In the case of Cc1cc(NCC(O)(CC(C)(C)c2cc(F)ccc2O)C(F)(F)F)c2cnn(-c3cccc(C(=O)N[C@H](C)C(N)=O)c3)c2c1 (stereo partly drawn) [Example 11, N-[(1R)-2-Amino-1-methyl-2-oxoethyl]-3-(4-{[4-(5-fluoro-2-hydroxyphenyl)-2-hydroxy-4-methyl-2-(trifluoromethyl)pentyl]amino}-6-methyl-1H-indazol-1-yl)benzamide], the EC50 is reported as less than 3.16 nM.
With COc1ccc(F)cc1C(C)(C)CC(O)(CNc1cc(C)cc2c1cnn2-c1cccc(C(=O)N[C@@H](CO)C(N)=O)c1)C(F)(F)F (stereo partly drawn) [Example 8, N-[(1S)-2-Amino-1-(hydroxymethyl)-2-oxoethyl]-3-(4-{[4-[5-fluoro-2-(methloxy)phenyl]-2-hydroxy-4-methyl-2-(trifluoromethyl)pentyl]amino}-6-methyl-1H-indazol-1-yl)benzamide] the EC50 was less than 3.16 nM.
Cc1cc(NCC(O)(CC(C)(C)c2cc(F)ccc2O)C(F)(F)F)c2cnn(-c3cccc(C(=O)NCC(N)=O)c3)c2c1 (stereo not shown) [Example 10, N-(2-Amino-2-oxoethyl)-3-(4-{[4-(5-fluoro-2-hydroxyphenyl)-2-hydroxy-4-methyl-2-(trifluoromethyl)pentyl]amino}-6-methyl-1H-indazol-1-yl)benzamide] showed an EC50 of less than 3.16 nM.
COc1ccc(F)cc1C(C)(C)CC(O)(CNc1cc(C)cc2c1cnn2-c1cccc(C(=O)NCC(N)=O)c1)C(F)(F)F (racemic) [Example 1, N-(2-Amino-2-oxoethyl)-3-(4-{[4-[5-fluoro-2-(methyloxy)phenyl]-2-hydroxy-4-methyl-2-(trifluoromethyl)pentyl]amino}-6-methyl-1H-indazol-1-yl)benzamide] gave an EC50 of less than 3.16 nM.
COc1ccc(F)cc1C(C)(C)C[C@@](O)(CNc1cc(C)cc2c1cnn2-c1cccc(C(=O)N2CCC[C@@H]2C(N)=O)c1)C(F)(F)F (single isomer, unassigned) [Example 7-A] gave an EC50 of less than 3.16 nM.
Work on COc1ccc(F)cc1C(C)(C)CC(O)(CNc1cc(C)cc2c1cnn2-c1cccc(C(=O)NC(C)(C)C(N)=O)c1)C(F)(F)F (single isomer, unassigned) [Example 5-A, N-(2-amino-1,1-dimethyl-2-oxoethyl)-3-(4-{[4-[5-fluoro-2-(methyloxy)phenyl]-2-hydroxy-4-methyl-2-(trifluoromethyl)pentyl]amino}-6-methyl-1H-indazol-1-yl)benzamide] yielded an EC50 of less than 3.16 nM.
